# Measured values published in patent US8178506B2, “Oligomeric compounds and compositions for use in modulation of small non-coding RNAs” (Regulus Therapeutics Inc., priority 2003, dated 2012).
# In the oligonucleotide strings, read from the 5' end, every base follows the letter of its sugar. An asterisk marks phosphorothioate; unmarked linkages are phosphodiester. Other units and linkages are bracketed, terminal groups are in braces. A string of capitals states the bases alone. e = 2'-O-(2-methoxyethyl) (MOE); [5mC] = 5-methylcytosine
# Assays:
# A549 cells = experiment: Cell cycle assay in A549 cells; format: cell-based, human; details: 24 hours; for % cells in cell cycle phase: G1 / % cells in cell cycle phase: G2/M / % cells in cell cycle phase: S / % cells in cell cycle phase: aneuploid / % cells in cell cycle phase: subG1: A549 cells, relative to the untreated control cells in that phase; for cell cycle delay or arrest (G2/M), dose response: A549, 25-, 50-, 100- or 150 nM
# Method: In accordance with the present invention, certain oligomeric compounds targeting miRNAs were selected for dose response studies. Using the cell cycle assay described above, the cell cycle profiles of HeLa or A549 cells treated with varying concentrations of oligomeric compounds of the present invention were assessed.
# Concomittent decreases in the percentage of cells in G1-phase of the cell cycle and increases in the percentage of hypodiploid (subG1) cells were also observed.
# In a further study, A549 cells were treated with 25-, 50-, 100- or 150 nM of the oligomeric compounds ISIS Numbers 338637 (SEQ ID NO: 464) targeted against mir-96, and ISIS 338769 (SEQ ID NO: 596) targeted against mir-130b, ISIS 338836 (SEQ ID NO: 663) targeted against mir-23a, and ISIS 340350 (SEQ ID NO: 855) targeted against mir-95 (Mourelatos). Cells treated with increasing concentrations of oligomeric compounds were compared to untreated cells, to assess the dose-responsiveness of the observed delay or arrest. The random-mer ISIS 29848 was used as a negative control. Cells were prepared for flow cytometry 24-hours after oligonucleotide treatment. Results of these dose response studies are shown in Table 34, where data are expressed as percentage of cells in each phase relative to the untreated control cells in that phase.
# HeLa cells = experiment: Cell cycle assay in HeLa cells; format: cell-based, human; details: for % cells in cell cycle phase: G1 / % cells in cell cycle phase: G2/M / % cells in cell cycle phase: S / % cells in cell cycle phase: aneuploid / % cells in cell cycle phase: subG1: 48 hours after treatment, relative to untreated control (UTC=100); for phase of the cell cycle in which cells arrest or delay: HeLa
# IL-12 mRNA = IL-12 mRNA in LPS-activated primary murine macrophages; format: cell-based, mouse; details: normalized to LPS-treated cells without oligomeric compound
# Method: To investigate the role of miRNAs in the immune response, oligomeric compounds of the present invention targeting miRNAs were tested for their effects upon lipopolysaccharide (LPS)-activated primary murine macrophages. Macrophages participate in the immune response, for example, in the recognition and phagocytosis of microorganisms, including bacteria. Interferon-gamma (IFN-gamma) released by helper T cells is one type of signal required for macrophage activation, and LPS can serve as an additional stimulus. LPS is a component of the gram-negative bacterial cell wall and acts as an agonist for toll-like receptor 4 (TLR4), the primary LPS receptor expressed by macrophages. The proinflammatory cytokines interleukin-12 (IL-12) and interleukin-6 (IL-6) are induced by LPS treatment of macrophages, thus the expression of the mRNAs encoding these cytokines was used to evaluate the response of macrophages to LPS following treatment with oligomeric compounds targeting miRNAs.
# Macrophages were isolated as follows. Female C57B1/6 mice (Charles River Laboratories, Wilmington, Mass.) were injected intraperitoneally with 1 ml 3% thioglycollate broth (Sigma-Aldrich, St. Louis, Mo.), and peritoneal macrophage cells were isolated by peritoneal lavage 4 days later. The cells were plated in 96-well plates at 40,000 cells/well for one hour in serum-free RPMI adjusted to contain 10 mM HEPES (Invitrogen Life Technologies, Carlsbad, Calif.), allowed to adhere, then non-adherent cells were washed away and the media was replaced with RPMI containing 10 mM HEPES, 10% FBS and penicillin/streptomycin (“complete” RPMI; Invitrogen Life Technologies, Carlsbad, Calif.).
# Oligomeric compounds were introduced into the cells using the non-liposomal transfection reagent FuGENE 6 Transfection Reagent (Roche Diagnostics Corp., Indianapolis, Ind.). Oligomeric compound was mixed with FuGENE 6 in 1 mL of serum-free RPMI to achieve a concentration of 10 μL FuGENE per 1000 nM oligomeric compound. The oligomeric compound/FuGENE complex was allowed to form at room temperature for 20 minutes. This mixture was diluted to the desired concentration of oligomeric compound by the addition of the appropriate volume of complete RPMI. The final ratio of FuGENE 6 to oligomeric compound was 1 μL of FuGENE 6 per 100 nM oligomeric compound. A volume of 100 μL of oligomeric compound/FuGENE/RPMI was added to each well of the 96-well plate in which the macrophages were cultured. Each oligomeric compound treatment was repeated in triplicate.
# Following oligomeric compound treatment, cells were stimultated with LPS. Cells were cultured in the presence of the transfection complex for approximately 24 to 28 hours at 37° C. and 5% CO2, after which the medium containing the transfection complex was removed from the cells, and complete RPMI containing 100 ng/mL LPS (Sigma-Aldrich Corp., St. Louis, Mo.) was added to the cells for a period of approximately 24 hours. Control samples included (1) cells receiving no oligomeric compound, stimulated with LPS and (2) cells receiving neither oligomeric compound nor LPS treatment.
# In another embodiment, following oligomeric compound treatment, cells were first activated by IFN-gamma, to amplify the response to LPS. Cells were cultured in the presence of the transfection complex for approximately 24 hours at 37° C. and 5% CO2, at which point the medium containing the transfection complex was removed from the cells, and complete RPMI containing 100 ng/mL recombinant mouse IFN-gamma (R&D Systems, Minneapolis, Minn.) was added to the cells. After the 4 hour treatment with INF-gamma, cells were treated with 100 ng/mL LPS for approximately 24 hours. Control samples included (1) cells receiving no oligomeric compound, stimulated with LPS and (2) cells receiving neither oligomeric compound nor LPS treatment. […]
# HuVECs = experiment: Endothelial tube formation assay in HuVECs; details: for tube formation: 75 nM
# PEPCK-c = PEPCK-c mRNA expression in HepG2 cells; format: cell-based, human; details: 100 nM; for decrease in PEPCK-c mRNA: HepG2, basal (no insulin)
# [1] = HeLa cells, 150 nM oligomeric compound, 24 hours, relative to untreated control (UTC = 100)
# [2] = HeLa cells, 150 nM oligomeric compound
# [3] = HeLa cells, 150 nM, 48 hours, relative to untreated control
substance,measurement,setting,value
"338836 (antisense TCCTCGGTGGCAGAGCTCAG; all 2'-MOE, all phosphorothioate, methylation of C not given here) [compound 338836]",% cells in cell cycle phase: G1,A549 cells; 25 nM,97%
same,% cells in cell cycle phase: G2/M,A549 cells; 25 nM,97%
same,% cells in cell cycle phase: S,A549 cells; 25 nM,103%
same,% cells in cell cycle phase: aneuploid,A549 cells; 25 nM,99%
same,% cells in cell cycle phase: subG1,A549 cells; 25 nM,76%
same,% cells in cell cycle phase: G1,A549 cells; 50 nM,113%
same,% cells in cell cycle phase: G2/M,A549 cells; 50 nM,98%
same,% cells in cell cycle phase: S,A549 cells; 50 nM,89%
same,% cells in cell cycle phase: aneuploid,A549 cells; 50 nM,111%
same,% cells in cell cycle phase: subG1,A549 cells; 50 nM,232%
same,% cells in cell cycle phase: G1,A549 cells; 100 nM,117%
same,% cells in cell cycle phase: G2/M,A549 cells; 100 nM,116%
same,% cells in cell cycle phase: S,A549 cells; 100 nM,80%
same,% cells in cell cycle phase: aneuploid,A549 cells; 100 nM,153%
same,% cells in cell cycle phase: subG1,A549 cells; 100 nM,68%
same,% cells in cell cycle phase: G1,A549 cells; 150 nM,117%
same,% cells in cell cycle phase: G2/M,A549 cells; 150 nM,149%
same,% cells in cell cycle phase: S,A549 cells; 150 nM,69%
same,% cells in cell cycle phase: aneuploid,A549 cells; 150 nM,114%
same,% cells in cell cycle phase: subG1,A549 cells; 150 nM,178%
same,% cells aneuploid,HeLa cells; [1],150%
same,% cells in cell cycle phase G1,HeLa cells; [1],185%
same,% cells in cell cycle phase G2/M,HeLa cells; [1],105%
same,% cells in cell cycle phase S,HeLa cells; [1],53%
same,% cells in cell cycle phase subG1,HeLa cells; [1],153%
same,% cells in cell cycle phase: G1,HeLa cells; [2],52%
same,% cells in cell cycle phase: G2/M,HeLa cells; [2],169%
same,% cells in cell cycle phase: S,HeLa cells; [2],152%
same,% cells in cell cycle phase: aneuploid,HeLa cells; [2],165%
same,% cells in cell cycle phase: subG1,HeLa cells; [2],811%
same,% cells in cell cycle phase G1,HeLa cells; [3],97%
same,% cells in cell cycle phase G2/M,HeLa cells; [3],121%
same,% cells in cell cycle phase S,HeLa cells; [3],96%
same,% cells in cell cycle phase aneuploid,HeLa cells; [3],114%
same,% cells in cell cycle phase subG1,HeLa cells; [3],303%
"ISIS 340350: SEQ ID NO: 855, targeted against mir-95 (Mourelatos) (TGCTCAATAAATACCCGTTGAA; all 2'-MOE, all phosphorothioate, methylation of C not given here)","cell cycle delay or arrest (G2/M), dose response",A549 cells,dose-responsive delay or arrest
same,phase of the cell cycle in which cells arrest or delay,"HeLa cells; 150 nM, 24 hours",G1-phase
same,phase of the cell cycle in which cells arrest or delay,"HeLa cells; 150 nM, 48 hours",S-phase
"338637 (antisense TCAGAGCGGAGAGACACAAG; all 2'-MOE, all phosphorothioate, methylation of C not given here) [compound 338637]",% cells in cell cycle phase: G1,A549 cells; 25 nM,100%
same,% cells in cell cycle phase: G2/M,A549 cells; 25 nM,101%
same,% cells in cell cycle phase: S,A549 cells; 25 nM,99%
same,% cells in cell cycle phase: aneuploid,A549 cells; 25 nM,99%
same,% cells in cell cycle phase: subG1,A549 cells; 25 nM,89%
same,% cells in cell cycle phase: G1,A549 cells; 50 nM,110%
same,% cells in cell cycle phase: G2/M,A549 cells; 50 nM,107%
same,% cells in cell cycle phase: S,A549 cells; 50 nM,89%
same,% cells in cell cycle phase: aneuploid,A549 cells; 50 nM,120%
same,% cells in cell cycle phase: subG1,A549 cells; 50 nM,86%
same,% cells in cell cycle phase: G1,A549 cells; 100 nM,126%
same,% cells in cell cycle phase: G2/M,A549 cells; 100 nM,115%
same,% cells in cell cycle phase: S,A549 cells; 100 nM,73%
same,% cells in cell cycle phase: aneuploid,A549 cells; 100 nM,146%
same,% cells in cell cycle phase: subG1,A549 cells; 100 nM,67%
same,% cells in cell cycle phase: G1,A549 cells; 150 nM,123%
same,% cells in cell cycle phase: G2/M,A549 cells; 150 nM,144%
same,% cells in cell cycle phase: S,A549 cells; 150 nM,66%
same,% cells in cell cycle phase: aneuploid,A549 cells; 150 nM,135%
same,% cells in cell cycle phase: subG1,A549 cells; 150 nM,216%
same,% cells aneuploid,HeLa cells; [1],188%
same,% cells in cell cycle phase G1,HeLa cells; [1],170%
same,% cells in cell cycle phase G2/M,HeLa cells; [1],84%
same,% cells in cell cycle phase S,HeLa cells; [1],70%
same,% cells in cell cycle phase subG1,HeLa cells; [1],88%
same,% cells in cell cycle phase: G1,HeLa cells; [2],90%
same,% cells in cell cycle phase: G2/M,HeLa cells; [2],117%
same,% cells in cell cycle phase: S,HeLa cells; [2],109%
same,% cells in cell cycle phase: aneuploid,HeLa cells; [2],210%
same,% cells in cell cycle phase: subG1,HeLa cells; [2],239%
327883 (antisense e[5mC]*eA*eG*eA*eA*e[5mC]*eT*eT*eA*eG*e[5mC]*e[5mC]*eA*e[5mC]*eT*eG*eT*eG*eA*eA) [compound 327883],"IL-12 mRNA expression, −IFN % UTC","IL-12 mRNA; 300 nM oligomeric compound and LPS, no IFN-gamma pretreatment, single experiment",266 % UTC
same,"IL-12 mRNA expression, +IFN % UTC","IL-12 mRNA; 300 nM oligomeric compound, stimulation with IFN-gamma and LPS, average of 2 experiments",39 % UTC
same,% Activity Relative to UTC (tube formation),"HuVECs; 75 nM oligomeric compound, Table 56",92.9%
"GAGACCCAGTAGCCAGATGTAGCT (chemistry not given here) [ISIS 327920, uniform 2′-MOE PS; targets mir-222]",tube formation,HuVECs,suppressed tube formation
same,reduction of PEPCK-c mRNA expression,"PEPCK-c; HepG2, 1 nM insulin",41%
same,decrease in PEPCK-c mRNA,PEPCK-c,48%
"ISIS 338637: SEQ ID NO: 464, targeted against mir-96 (TCAGAGCGGAGAGACACAAG; all 2'-MOE, all phosphorothioate, methylation of C not given here)","cell cycle delay or arrest (G2/M), dose response",A549 cells,dose-responsive delay or arrest
same,phase of the cell cycle in which cells arrest or delay,"HeLa cells; 150 nM, 24 hours",G1-phase
same,phase of the cell cycle in which cells arrest or delay,"HeLa cells; 150 nM, 48 hours",S-phase
"CGCGTACCAAAAGTAATAATG (anti-miR; chemistry not fully specified) [ISIS 327886, uniform 2′-MOE PS; targets mir-123/mir-126as]",tube formation,HuVECs,suppressed tube formation
same,decrease in PEPCK-c mRNA,PEPCK-c,39%
"CAGTGAATTCTACCAGTGCCATA (anti-miR; chemistry not fully specified) [ISIS 327899, uniform 2′-MOE PS; targets mir-183]",tube formation,HuVECs,suppressed tube formation
same,decrease in PEPCK-c mRNA,PEPCK-c,58%
GCTTCCCAGCGGCCTATAGT (chemistry not given here) [ISIS 338769],"cell cycle delay or arrest (G2/M), dose response",A549 cells,dose-responsive delay or arrest
same,phase of the cell cycle in which cells arrest or delay,"HeLa cells; 150 nM, 24 hours",G1-phase
same,phase of the cell cycle in which cells arrest or delay,"HeLa cells; 150 nM, 48 hours",S-phase
"ISIS 338836: SEQ ID NO: 663, targeted against mir-23a (TCCTCGGTGGCAGAGCTCAG; all 2'-MOE, all phosphorothioate, methylation of C not given here)","cell cycle delay or arrest (G2/M), dose response",A549 cells,dose-responsive delay or arrest
same,phase of the cell cycle in which cells arrest or delay,"HeLa cells; 150 nM, 24 hours",G1-phase
same,phase of the cell cycle in which cells arrest or delay,"HeLa cells; 150 nM, 48 hours",S-phase
